Source: patent US11292770B2, “Pyridazinone herbicides” (FMC Corporation, priority 2017, dated 2022)

Assays:
Format in all cases: in vivo
[1] = test system: barnyardgrass (Echinochloa crus-galli); test: Test A preemergence, barnyardgrass; conditions: 0 to 100 scale
From the text: (§1) Seeds of plant species selected from barnyardgrass (Echinochloa crus-galli), kochia (Kochia scoparia), ragweed (common ragweed, Ambrosia elation), ryegrass, Italian (Italian ryegrass, Lolium multiflorum), foxtail, green (green foxtail, Setaria viridis), and pigweed (Amaranthus retroflexus) were planted into a blend of loam soil and sand and treated preemergence with a directed soil spray using test chemicals formulated in a non-phytotoxic solvent mixture which included a surfactant. At the same time, plants selected from these weed species and also wheat (Triticum aestivum), corn (Zea mays), blackgrass (Alopecurus myosuroides), and galium (catchweed bedstraw, Galium aparine) were planted in pots containing the same blend of loam soil and sand and treated with postemergence applications of test chemicals formulated in the same manner Plants ranged in height from 2 to 10 cm and were in the one- to two-leaf stage for the postemergence treatment. Treated plants and untreated controls were maintained in a greenhouse for approximately 10 d, after which time all treated plants were compared to untreated controls and visually evaluated for injury. Plant response ratings, summarized in Table A, are based on a 0 to 100 scale where 0 is no effect and 100 is complete control. A dash (—) response means no test result.

kochia (Kochia scoparia) [2] = test: Test A preemergence, kochia; conditions: 0 to 100 scale
From the text: as §1

[3] = test system: ragweed (common ragweed, Ambrosia elation); test: Test A preemergence, ragweed; conditions: 0 to 100 scale
From the text: as §1

[4] = test system: ryegrass, Italian (Italian ryegrass, Lolium multiflorum); test: Test A preemergence, ryegrass, Italian; conditions: 0 to 100 scale
From the text: as §1

[5] = test system: foxtail, green (green foxtail, Setaria viridis); test: Test A preemergence, foxtail, green; conditions: 0 to 100 scale
From the text: as §1

[6] = test system: pigweed (Amaranthus retroflexus); test: Test A preemergence, pigweed; conditions: 0 to 100 scale
From the text: as §1

[7] = test system: barnyardgrass (Echinochloa crus-galli); test: Test A postemergence, barnyardgrass; conditions: 0 to 100 scale
From the text: as §1

kochia (Kochia scoparia) [8] = test: Test A postemergence, kochia; conditions: 0 to 100 scale
From the text: as §1

[9] = test system: ragweed (common ragweed, Ambrosia elation); test: Test A postemergence, ragweed; conditions: 0 to 100 scale
From the text: as §1

[10] = test system: ryegrass, Italian (Italian ryegrass, Lolium multiflorum); test: Test A postemergence, ryegrass, Italian; conditions: 0 to 100 scale
From the text: as §1

[11] = test system: foxtail, green (green foxtail, Setaria viridis); test: Test A postemergence, foxtail, green; conditions: 0 to 100 scale
From the text: as §1

[12] = test system: pigweed (Amaranthus retroflexus); test: Test A postemergence, pigweed; conditions: 0 to 100 scale
From the text: as §1

[13] = test system: wheat (Triticum aestivum); test: Test A postemergence, wheat; conditions: 0 to 100 scale
From the text: as §1

corn (Zea mays) = test: Test A postemergence, corn; conditions: 0 to 100 scale
From the text: as §1

[14] = test system: blackgrass (Alopecurus myosuroides); test: Test A postemergence, blackgrass; conditions: 0 to 100 scale
From the text: as §1

[15] = test system: galium (catchweed bedstraw, Galium aparine); test: Test A postemergence, galium; conditions: 0 to 100 scale
From the text: as §1

rice (Oryza sativa) = test: Test B flooded paddy test, rice; conditions: Flood, 250 g ai/ha; scale of 0 to 100
Experimental: (§2) Plant species in the flooded paddy test selected from rice (Oryza sativa), sedge, umbrella (small-flower umbrella sedge, Cyperus difformis), ducksalad (Heteranthera limosa), and barnyardgrass (Echinochloa crus-galli) were grown to the 2-leaf stage for testing. At the time of treatment, test pots were flooded to 3 cm above the soil surface, treated by application of test compounds directly to the paddy water, and then maintained at that water depth for the duration of the test. Treated plants and controls were maintained in a greenhouse for 13 to 15 d, after which time all species were compared to controls and visually evaluated. Plant response ratings, summarized in Table B, are based on a scale of 0 to 100 where 0 is no effect and 100 is complete control. A dash (—) response means no test result.

[16] = test system: sedge, umbrella (small-flower umbrella sedge, Cyperus difformis); test: Test B flooded paddy test, sedge, umbrella; conditions: Flood, 250 g ai/ha; scale of 0 to 100
Experimental: as §2

[17] = test system: ducksalad (Heteranthera limosa); test: Test B flooded paddy test, ducksalad; conditions: Flood, 250 g ai/ha; scale of 0 to 100
Experimental: as §2

[18] = test system: barnyardgrass (Echinochloa crus-galli); test: Test B flooded paddy test, barnyardgrass; conditions: Flood, 250 g ai/ha; scale of 0 to 100, 0 no effect, 100 complete control
Experimental: as §2

[19] = 125 g ai/ha, 0 no effect, 100 complete control

Compound | Plant response rating, Barnyardgrass ([1]; 31 g ai/ha) | Plant response rating, Barnyardgrass ([1]; 125 g ai/ha) | Plant response rating, Kochia (kochia (Kochia scoparia) [2]; 31 g ai/ha) | Plant response rating, Kochia (kochia (Kochia scoparia) [2]; 125 g ai/ha) | Plant response rating, Ragweed ([3]; 31 g ai/ha) | Plant response rating, Ragweed ([3]; 125 g ai/ha) | Plant response rating, Ryegrass, Italian ([4]; 31 g ai/ha) | Plant response rating, Ryegrass, Italian ([4]; 125 g ai/ha) | Plant response rating, Foxtail, Green ([5]; 31 g ai/ha) | Plant response rating, Foxtail, Green ([5]; 125 g ai/ha) | Plant response rating, Pigweed ([6]; 31 g ai/ha) | Plant response rating, Pigweed ([6]; 125 g ai/ha) | Plant response rating, Barnyardgrass ([7]; 31 g ai/ha) | Plant response rating, Barnyardgrass [7, 19] | Plant response rating, Kochia (kochia (Kochia scoparia) [8]; 31 g ai/ha) | Plant response rating, Kochia (kochia (Kochia scoparia) [8]; 125 g ai/ha) | Plant response rating, Ragweed ([9]; 31 g ai/ha) | Plant response rating, Ragweed ([9]; 125 g ai/ha) | Plant response rating, Ryegrass, Italian ([10]; 31 g ai/ha) | Plant response rating, Ryegrass, Italian ([10]; 125 g ai/ha) | further results
Cn1nc(Cl)c(O)c(-c2c3ccccc3c(Br)c3ccccc23)c1=O [Compound 3, 4-(10-bromo-9-anthracenyl)-6-chloro-5-hydroxy-2-methyl-3(2H)-pyridazinone] | 0 | 50 | 0 | 50 | 20 | 100 | 20 | 80 | 10 | 80 | 100 | 100 | 20 | 60 | 10 | 50 | 80 | 90 | 40 | 50 | Plant response rating, Foxtail, Green ([11]; 31 g ai/ha): 40; Plant response rating, Foxtail, Green ([11]; 125 g ai/ha): 90; Plant response rating, Pigweed ([12]; 31 g ai/ha): 100; Plant response rating, Pigweed ([12]; 125 g ai/ha): 100; Plant response rating, Wheat ([13]; 31 g ai/ha): 20; Plant response rating, Wheat ([13]; 125 g ai/ha): 60; Plant response rating, Corn (corn (Zea mays); 31 g ai/ha): 0; Plant response rating, Corn (corn (Zea mays); 125 g ai/ha): 10; Plant response rating, Blackgrass ([14]; 31 g ai/ha): 10; Plant response rating, Blackgrass ([14]; 125 g ai/ha): 70; Plant response rating, Galium ([15]; 31 g ai/ha): 90; Plant response rating, Galium ([15]; 125 g ai/ha): 90
Cn1nc(Cl)c(O)c(-c2c3ccccc3c(Cl)c3ccccc23)c1=O [Compound 2, 6-chloro-4-(10-chloro-9-anthracenyl)-5-hydroxy-2-methyl-3(2H)-pyridazinone] | 0 | 0 | 0 | 10 | 80 | 100 | 20 | 70 | 0 | 90 | 100 | 100 | 0 | 20 | 10 | 70 | 90 | 90 | 50 | 80 | Plant response rating, Foxtail, Green ([11]; 31 g ai/ha): 10; Plant response rating, Foxtail, Green ([11]; 125 g ai/ha): 60; Plant response rating, Pigweed ([12]; 31 g ai/ha): 100; Plant response rating, Pigweed ([12]; 125 g ai/ha): 100; Plant response rating, Wheat ([13]; 31 g ai/ha): 0; Plant response rating, Wheat ([13]; 125 g ai/ha): 30; Plant response rating, Corn (corn (Zea mays); 31 g ai/ha): 0; Plant response rating, Corn (corn (Zea mays); 125 g ai/ha): 0; Plant response rating, Blackgrass ([14]; 31 g ai/ha): 0; Plant response rating, Blackgrass ([14]; 125 g ai/ha): 60; Plant response rating, Galium ([15]; 31 g ai/ha): 20; Plant response rating, Galium ([15]; 125 g ai/ha): 100; Plant response rating, Rice (rice (Oryza sativa)): 0; Plant response rating, Sedge, Umbrella [16]: 75; Plant response rating, Ducksalad [17]: 80; Plant response rating, Barnyardgrass [18]: 0
Cc1c2ccccc2c(-c2c(O)c(Cl)nn(C)c2=O)c2ccccc12 [Compound 5] | 0 | 0 | 0 | 0 | 0 | 0 | 0 | 0 | 0 | 0 | 0 | 60 | 0 | 30 | 0 | 0 | 10 | 20 | 0 | 50 | Plant response rating, Foxtail, Green ([11]; 31 g ai/ha): 0; Plant response rating, Foxtail, Green ([11]; 125 g ai/ha): 30; Plant response rating, Pigweed ([12]; 31 g ai/ha): 50; Plant response rating, Pigweed ([12]; 125 g ai/ha): 90; Plant response rating, Wheat ([13]; 31 g ai/ha): 0; Plant response rating, Wheat ([13]; 125 g ai/ha): 0; Plant response rating, Corn (corn (Zea mays); 31 g ai/ha): 10; Plant response rating, Corn (corn (Zea mays); 125 g ai/ha): 20; Plant response rating, Blackgrass ([14]; 31 g ai/ha): 0; Plant response rating, Blackgrass ([14]; 125 g ai/ha): 0; Plant response rating, Galium ([15]; 31 g ai/ha): 20; Plant response rating, Galium ([15]; 125 g ai/ha): 70; Plant response rating, Rice (rice (Oryza sativa)): 0; Plant response rating, Sedge, Umbrella [16]: 95; Plant response rating, Ducksalad [17]: 90; Plant response rating, Barnyardgrass [18]: 0
